Laboratory results taken from US20250099478A1, “PLASMA KALLIKREIN INHIBITORS” (Merck Sharp & Dohme LLC, priority 2022, published 2025).

Legend:
[1] = target: T1, Human plasma kallikrein (Homo sapiens, UniProt P03952); assay: Plasma Kallikrein Assay; assay type: biochemical; settings: purified Human plasma kallikrein 0.5 nM, substrate Acetyl-K-P-R-AFC; read-out: PKal IC50
T1 construct: yields a heavy chain (371 amino acids) and a light chain (248 amino acids); purchased Enzyme Research Laboratories
T1 sequence (P03952 391-638 limits assumed): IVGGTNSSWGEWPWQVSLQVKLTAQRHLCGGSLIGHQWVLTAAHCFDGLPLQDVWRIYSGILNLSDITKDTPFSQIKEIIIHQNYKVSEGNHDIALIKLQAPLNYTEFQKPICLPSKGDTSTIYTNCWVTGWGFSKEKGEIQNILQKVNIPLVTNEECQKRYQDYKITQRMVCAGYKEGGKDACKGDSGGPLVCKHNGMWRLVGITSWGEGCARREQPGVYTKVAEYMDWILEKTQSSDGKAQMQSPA
T1 sequence (P03952 20-390 partner limits assumed): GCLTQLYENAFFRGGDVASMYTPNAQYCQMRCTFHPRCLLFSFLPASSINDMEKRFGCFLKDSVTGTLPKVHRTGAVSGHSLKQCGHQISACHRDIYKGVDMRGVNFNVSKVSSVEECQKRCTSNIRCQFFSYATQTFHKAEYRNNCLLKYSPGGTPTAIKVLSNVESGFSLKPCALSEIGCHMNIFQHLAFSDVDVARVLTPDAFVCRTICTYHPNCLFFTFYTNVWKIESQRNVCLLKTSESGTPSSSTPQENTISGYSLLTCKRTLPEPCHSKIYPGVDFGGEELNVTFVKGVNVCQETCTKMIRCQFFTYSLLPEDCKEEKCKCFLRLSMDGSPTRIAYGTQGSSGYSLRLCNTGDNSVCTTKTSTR
Procedure, shortened: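 Purified human plasma kallikrein (0.5 nM) hydrolysing fluorogenic Acetyl-K-P-R-AFC ([…]) in 50 mM HEPES pH 7.4, 150 mM NaCl, 5 mM CaCl2, 0.1% PEG 8000, at rt or 37 °C after enzyme–inhibitor equilibration. IC50 from four-parameter logistic fit; Ki via Cheng–Prusoff.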

[2] = target: T2, human factor XIa (Homo sapiens, UniProt P03951); assay: Factor XIa Assay; assay type: biochemical; settings: human factor XIa 0.04 nM, substrate GPR-AFC, 25° C.
T2 construct: with human (0.04 nM) factor XIa
T2 sequence (P03951 388-625 limits assumed): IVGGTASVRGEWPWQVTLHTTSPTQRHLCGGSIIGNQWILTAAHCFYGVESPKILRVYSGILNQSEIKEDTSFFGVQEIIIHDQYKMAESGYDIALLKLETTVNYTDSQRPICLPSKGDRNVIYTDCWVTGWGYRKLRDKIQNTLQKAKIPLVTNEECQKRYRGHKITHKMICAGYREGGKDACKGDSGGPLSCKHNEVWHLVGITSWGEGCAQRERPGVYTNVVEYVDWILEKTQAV
T2 sequence (P03951 19-387 partner limits assumed): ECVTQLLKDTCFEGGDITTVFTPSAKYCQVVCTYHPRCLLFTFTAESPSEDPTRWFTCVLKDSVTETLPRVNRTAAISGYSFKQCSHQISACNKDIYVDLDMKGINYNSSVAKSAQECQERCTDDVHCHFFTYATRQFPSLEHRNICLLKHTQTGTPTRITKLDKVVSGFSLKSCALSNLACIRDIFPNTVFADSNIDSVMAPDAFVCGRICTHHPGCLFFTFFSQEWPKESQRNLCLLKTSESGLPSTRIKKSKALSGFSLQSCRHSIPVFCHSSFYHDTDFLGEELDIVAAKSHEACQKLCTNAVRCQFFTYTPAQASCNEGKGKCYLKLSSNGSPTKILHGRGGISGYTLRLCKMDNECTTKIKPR
Procedure: The effectiveness of a compound of the present invention as an inhibitor of Coagulation factor XIa can be determined using a relevant purified serine protease, and an appropriate synthetic substrate. The rate of hydrolysis of the chromogenic or fluorogenic substrate by the relevant serine protease was measured both in the absence and presence of compounds of the present invention. Assays were conducted at rt or at 37° C. […] A decrease in the rate of fluorescence change in the presence of inhibitor is indicative of enzyme inhibition. Such methods are known to one skilled in the art. The results of this assay are expressed as the half-maximal inhibitory concentrations (IC50), or the inhibitory constant, Ki.
Compounds were pre-incubated for 30 min at 25° C. with human (0.04 nM) factor XIa in 50 mM HEPES buffer with 150 mM sodium chloride, 5 mM calcium chloride, 0.1% PEG 8000, pH 7.4. factor XIa enzymatic activity was determined by addition of the substrate glycine-proline-arginine-7-amido-4-trifluoromethylcoumarin (GPR-AFC) and measurement of the fluorescence at 400/505 nm after a 60 min incubation at 25° C. The % inhibition for each data point was calculated from the data and analyzed using the log (inhibitor) vs. response four parameters equation to determine the half-maximal inhibitory concentrations (IC50). The IC50 were converted to equilibrium inhibitory constants (Ki) using the Cheng-Prusoff equation.

| Compound | IC50 [1] [nM] | IC50 [2] [nM] |
| --- | --- | --- |
| O=C1Nc2ccc(Cl)c(F)c2[C@@]2(CCCN(C(=O)c3cnc(C(O)c4ccc(F)cc4)[nH]3)C2)O1 (single isomer, unassigned) [Example 78] | 13.7 | 3850 |
| CC[C@@H](c1ccc(F)cc1)c1ncc(C(=O)N2CCC[C@@]3(C2)OC(=O)Nc2ccc(Cl)c(F)c23)[nH]1 (single isomer, unassigned) [Example 79] | 1.7 | 194 |
| CC[C@H](c1ccc(F)cc1)c1ncc(C(=O)N2CCC[C@@]3(C2)OC(=O)Nc2ccc(Cl)c(F)c23)[nH]1 (single isomer, unassigned) [Example 80] | 1.9 | 179 |
| O=C1Nc2ccc(Cl)c(F)c2[C@@]2(CCCN(C(=O)c3cnc(C(c4ccc(F)cc4)C(F)(F)F)[nH]3)C2)O1 (single isomer, unassigned) [Example 82] | 42.5 | 7390 |
| CCC(c1ccc(F)c(Cl)c1)c1nnc(C(=O)N2CCC[C@@]3(C2)OC(=O)Nc2ccc(Cl)c(F)c23)[nH]1 (single isomer, unassigned) [Example 96] | 3.5 | 5080 |
| O=C1Nc2ccc(Cl)c(F)c2[C@@]2(CCCN(C(=O)c3nnc(C(CC(F)(F)F)c4cccc(Cl)c4)[nH]3)C2)O1 (single isomer, unassigned) [Example 101] | 10.4 | 4010 |
| CCC(c1ccc(F)cc1)c1nnc(C(=O)N2CC(C)(C)C[C@@]3(C2)OC(=O)Nc2ccc(Cl)c(F)c23)[nH]1 (single isomer, unassigned) [Example 103] | 7 | 1950 |
| O=C1Nc2ccc(Cl)c(F)c2[C@@]2(CCCN(C(=O)c3nnc(C(Cc4ccccc4)c4ccccc4)[nH]3)C2)O1 (single isomer, unassigned) [Example 105] | 17.3 | 3600 |
| O=C1Nc2ccc(Cl)c(F)c2[C@@]2(CCCN(C(=O)c3nnc(C(c4ccccc4)C4CC4)[nH]3)C2)O1 (single isomer, unassigned) [Example 106] | 1.6 | 795 |
| O=C1Nc2ccc(Cl)c(F)c2[C@@]2(CCCN(C(=O)c3nnc(C(c4ccccc4)C4CC4)[nH]3)C2)O1 (single isomer, unassigned) [Example 107] | 11.2 | 1910 |
| CCC(c1ccc2c(c1)COC2)c1nnc(C(=O)N2CCC[C@@]3(C2)OC(=O)Nc2ccc(Cl)c(F)c23)[nH]1 (single isomer, unassigned) [Example 112] | 1 | 1560 |
| O=C1Nc2ccc(Cl)c(F)c2[C@@]2(CCCN(C(=O)c3cnn(Cc4ccnc(C(F)(F)F)c4)c3)C2)O1 [Example 7, (R)-6-Chloro-5-fluoro-1′-(1-((2-(trifluoromethyl)pyridin-4-yl)methyl)-1H-pyrazole-4-carbonyl)spiro[benzo[d][1,3]oxazine-4,3′-piperidin]-2(1H)-one] | 37.5 | 881 |

Continued, values first:

| IC50 [1] [nM] | IC50 [2] [nM] | Compound |
| --- | --- | --- |
| 32.5 | 1360 | CCC(c1ccc(F)cc1)c1c[nH]c(C(=O)N2CC[C@@]3(C2)OC(=O)Nc2ccc(Cl)c(F)c23)n1 (single isomer, unassigned) [Example 66, (4R)-6-Chloro-5-fluoro-1′-(4-((S or R)-1-(4-fluorophenyl)propyl)-1H-imidazole-2-carbonyl)spiro[benzo[d][1,3]oxazine-4,3′-pyrrolidin]-2(1H)-one] |
| 5.5 | 995 | CCC(c1ccc(F)cc1)c1c[nH]c(C(=O)N2CCC[C@@]3(C2)OC(=O)Nc2ccc(Cl)c(F)c23)n1 (single isomer, unassigned) [Example 71, (R)-6-Chloro-5-fluoro-1′-(4-((R or S)-1-(4-fluorophenyl)propyl)-1H-imidazole-2-carbonyl)spiro[benzo[d][1,3]oxazine-4,3′-piperidin]-2(1H)-one] |
| 9.3 | 1430 | CCC(c1ccc(F)cc1)c1c[nH]c(C(=O)N2CCC[C@@]3(C2)OC(=O)Nc2ccc(Cl)c(F)c23)n1 (single isomer, unassigned) [Example 72, (R)-6-Chloro-5-fluoro-1′-(4-((S or R)-1-(4-fluorophenyl)propyl)-1H-imidazole-2-carbonyl)spiro[benzo[d][1,3]oxazine-4,3′-piperidin]-2(1H)-one] |
| 8.2 | 2050 | CCC(c1ccnc(C(F)(F)F)c1)c1c[nH]c(C(=O)N2CCC[C@@]3(C2)OC(=O)Nc2ccc(Cl)c(F)c23)n1 (single isomer, unassigned) [Example 73, (R)-6-Chloro-5-fluoro-1′-(4-((R or S)-1-(2-(trifluoromethyl)pyridin-4-yl)propyl)-1H-imidazole-2-carbonyl)spiro[benzo[d][1,3]oxazine-4,3′-piperidin]-2(1H)-one] |
| 10.8 | 2750 | CCC(c1ccnc(C(F)(F)F)c1)c1c[nH]c(C(=O)N2CCC[C@@]3(C2)OC(=O)Nc2ccc(Cl)c(F)c23)n1 (single isomer, unassigned) [Example 74, (R)-6-Chloro-5-fluoro-1′-(4-((S or R)-1-(2-(trifluoromethyl)pyridin-4-yl)propyl)-1H-imidazole-2-carbonyl)spiro[benzo[d][1,3]oxazine-4,3′-piperidin]-2(1H)-one] |
| 5.7 | 322 | COC1(CC(c2ccccc2)c2c[nH]c(C(=O)N3CCC[C@@]4(C3)OC(=O)Nc3ccc(Cl)c(F)c34)n2)CC1 (single isomer, unassigned) [Example 75, (R)-6-Chloro-5-fluoro-1′-(4-((R or S)-2-(1-methoxycyclopropyl)-1-phenylethyl)-1H-imidazole-2-carbonyl)spiro[benzo[d][1,3]oxazine-4,3′-piperidin]-2(1H)-one] |
| 21.3 | 2700 | O=C1Nc2ccc(Cl)c(F)c2[C@@]2(CCCN(C(=O)c3cnc(C(c4ccc(F)cc4)C(F)(F)F)[nH]3)C2)O1 (single isomer, unassigned) [Example 83] |
| 16.7 | 3110 | CC[C@H](c1ccc(F)cc1)c1nnc(C(=O)N2CCC[C@@]3(C2)OC(=O)Nc2ccc(Cl)c(F)c23)[nH]1 (single isomer, unassigned) [Example 85] |
| 13.8 | 8750 | CCC(c1ccc(F)c(Cl)c1)c1nnc(C(=O)N2CCC[C@@]3(C2)OC(=O)Nc2ccc(Cl)c(F)c23)[nH]1 (single isomer, unassigned) [Example 97] |
| 1.3 | 362 | O=C1Nc2ccc(Cl)c(F)c2[C@@]2(CCCN(C(=O)c3nnc(C(CC(F)(F)F)c4ccccc4)[nH]3)C2)O1 (single isomer, unassigned) [Example 98] |
| 9.7 | 1370 | O=C1Nc2ccc(Cl)c(F)c2[C@@]2(CCCN(C(=O)c3nnc(C(CC(F)(F)F)c4ccccc4)[nH]3)C2)O1 (single isomer, unassigned) [Example 99] |
| 2.2 | 1450 | O=C1Nc2ccc(Cl)c(F)c2[C@@]2(CCCN(C(=O)c3nnc(C(CC(F)(F)F)c4cccc(Cl)c4)[nH]3)C2)O1 (single isomer, unassigned) [Example 100] |
| 3.6 | 1130 | CCC(c1ccc(F)cc1)c1nnc(C(=O)N2CC(C)(C)C[C@@]3(C2)OC(=O)Nc2ccc(Cl)c(F)c23)[nH]1 (single isomer, unassigned) [Example 102] |
| 16.6 | 2990 | O=C1Nc2ccc(Cl)c(F)c2[C@@]2(CCCN(C(=O)c3nnc(C(Cc4ccccc4)c4ccccc4)[nH]3)C2)O1 (single isomer, unassigned) [Example 104] |
| 3.8 | 2820 | CCC(c1ccc2c(c1)COC2)c1nnc(C(=O)N2CCC[C@@]3(C2)OC(=O)Nc2ccc(Cl)c(F)c23)[nH]1 (single isomer, unassigned) [Example 111] |
| 4 | 382 | CCC(O)(c1ccc(F)cc1)c1n[nH]c(C(=O)N2CCC[C@@]3(C2)OC(=O)Nc2ccc(Cl)c(F)c23)n1 (single isomer, unassigned) [Example 128, (R)-6-Chloro-5-fluoro-1′-(3-(UR or S)-1-(4-fluorophenyl)-1-hydroxypropyl)-1H-1,2,4-triazole-5-carbonyl)spiro[benzo[d][1,3]oxazine-4,3′-piperidin]-2(1H)-one] |
| 8.9 | 4300 | CCC(F)(c1ccc(F)cc1)c1n[nH]c(C(=O)N2CCC[C@@]3(C2)OC(=O)Nc2ccc(Cl)c(F)c23)n1 (single isomer, unassigned) [Example 129, (3′R)-6-Chloro-5-fluoro-1′-(3-(1-fluoro-1-(4-fluorophenyl)propyl)-1H-1,2,4-triazole-5-carbonyl)spiro[benzo[d][1.3]oxazine-4,3′-piperidin]-2(1H)-one] |
